Measurements: patent US10172835B2, “Anticancer agent composition” (J-Pharma Co., Ltd., priority 2014, dated 2019)
Counter-ions that a name gives are not always drawn.

Columns and labels:
[1] = system: HT-29 cell derived from human large intestine cancer; assay: Tumor growth in nude mouse inoculated subcutaneously with HT-29 cells; type: in vivo
Procedure: A HT-29 cell was inoculated subcutaneously into a mouse, and the transition of the size of the tumor lump was measured with time from the day on which the tumor has grown to a certain size, when each of COM-JP and 5-FU was used alone or in combination.

[2] = system: KO99L cells (tPTEN−/− tumor cell line); assay: WST-1 cell viability assay on KO99L cells; type: cell-based, murine; details: Mus musculus, KO99L cells, 48 h
Procedure: Two different assays were employed: i) In a 96-well plate format, cells (4.0±0.1×10^4 per well; 100 μL) were incubated with effectors (48 h, 37° C.; n=4 per experiment) and then WST-1 reagent (10 μL; Roche Diagnostics) added to each well of 96-well plates, incubated, and the formazan production was measured at 490 nm; and ii) cells (2.0±0.1×10^4 per well; 100 μL) were incubated with effectors (48 h, 37° C.; n=4 per experiment) and then bromodeoxyuridine reagent (10 μL/well; Roche Diagnostics) was added to each well and incubated (8 h, 37° C.). The cells were then fixed, denatured and incubated with anti-BrdU-conjugated with peroxidase (POD) antibody (100 μL/well). Colorimetric substrate (TMB: tetramethyl-benzidine; 100 μL/well) was added and BrdU incorporation quantified via optical density measurement (450 nm) which corresponds to DNA synthesis and proliferating cells.

[3] = system: HT-29 cell derived from human large intestine cancer; assay: Tumor growth in nude mouse SOI model (HT-29 grafted onto wall of large intestine); type: in vivo
Excerpt: […] was expressed in a HT-29 cell derived from human large intestine cancer, and which was grafted onto the wall of large intestine of a mouse to produce a metamouse. According to this, the quantity of the size of the tumor could be determined with time with emission intensity. In FIG. 16, the size of tumor in each treatment group was shown with a bar graph. Group 1 is a control group, Groups 2 to 4 are a group in which COM-JP was intraperitoneally administered alone at 3.1, 12.5, and 50 mg/kg weight/day every day for 4 weeks, Group 5 is a group in which CDDP was intraperitoneally administered alone at 2.5 mg/kg/day three times on day 0, day 6, and day 13, Groups 6 to 8 are a group in which Groups 2 to 4 and Group 5 were combined to be administered in combination, and Group 9 is a group in which COM-JP was orally administered at 300 mg/kg/day every day for 4 weeks.

KO99L cells [4] = assay: Combination studies with COMPOUND-JP, WST-1 viability, Chou-Talalay combination index; type: cell-based, murine; details: 48 h, suboptimal concentrations, in combination with COMPOUND-JP
Procedure: Combinations were analyzed by ANOVA followed by Tukey's Multiple comparison test to determine significance between experimental groups. The synergism between drugs was analyzed using the Chou-Talalay method. […] P-value <0.05 was accepted as statistically significant (*:p<0.05; **:p<0.01; ***:p<0.001). Analyses were performed using the GraphPAd Prism 3.0 software.

CHOP = assay: Western blot of CHOP protein levels, KO99L cells; type: cell-based, murine; details: for CHOP induction: FIG. 5B, COMPOUND-JP 5.0 and 10.0 μM, L-Asp 2.5 units/ml, rapamycin 10.0 nM, MK-2206 10.0 μM, KU0063794 10.0 μM; for CHOP expression, time course: FIG. 5A, COMPOUND-JP 10.0 μM, L-Asp, Erw 2.5 units/ml, 2.0-24 h
Procedure: (§1) Cell extracts were prepared using a cell lysis buffer (50 mM HEPES, pH 7.4, 150 mM NaCl, 20 mM EDTA, 100 mM NaF, 10 mM Na3VO4, 0.5% nonyl phenoxypolyethoxylethanol (NP40) supplemented with a cocktail of protease inhibitors. After SDS-PAGE separation and transfer to nitrocellulose immunoblotting was performed using the following antibodies against: Akt (Cell Signaling Technologies, #9272), CHOP (#2895), cleaved caspase 3 (#9664), c-Myc (#9402), eIF2a (#9721), 4EBP1 (#9644), LC3A/B (#12741), PARP (#9542), pJnk (T183/Y185) (#9251), pSer235-236-S6RP (#4856), pSer473-Akt (#9271), pSer65-4EBP1 (#9451) and S6RP (#2217); Bax (Sigma-Aldrich, B8429); PUMA (Abcam, ab54288); Bak (Millipore, 06536); ATF4 (Santa Cruz Biotechnologies, sc200), GADD34 (sc8327), Hsp60 (sc-1722), Hsp90 (sc-13119) and XBP1 (sc-7160); ATF6 (Imgenex, IMG-273).

c-myc = assay: Western blot of c-myc levels, KO99L cells; type: cell-based, murine; details: COMPOUND-JP 10.0 μM 2.0-24 h; Velcade 8 nM 24 h; KU0063794 10.0 μM; MK-2206 10.0 μM; rapamycin 100 nM
Procedure: as §1

mTORC1 / Akt activation = assay: Western blot of S6RP, 4EBP1 and Akt phosphorylation, KO99L cells; type: cell-based, murine; details: 2.0-24 h; COMPOUND-JP 10.0 μM; MK-2206 5.0 μM; KU0063794 5.0 μM; rapamycin 10.0 nM; L-Asp, Erw 2.5 units/ml; velcade at 24 h
KO99L cells [5] = assay: Annexin-V / DAPI apoptosis assay, KO99L cells; type: cell-based, murine; details: 20.0 μM
Procedure: Apoptosis assessment was performed by measuring phosphatidyl-serine membrane redistribution via annexin-V-FITC (Invitrogen). Cells (5.0±0.1×10^5 per well; 2.0 mL) were incubated with effectors, and re-suspended in staining solution (110 μL; Annexin-V ( 1/10) and incubated in the dark (15 min, RT). […] Basal apoptosis and necrosis were determined on control untreated cells.

[6] = system: 44As3-11 cell derived from human scirrhous stomach cancer; assay: MTT, single agents and combination with COM-JP, 44As3-11 cells; type: cell-based
Procedure: (§2) Two kind of cancer cells of a 44As3-11 cell derived from human scirrhous stomach cancer and a Panc-1 cell derived from human pancreatic cancer were cultured in the presence or absence of COM-JP, to which GEM and Pac was added on day 2, and the resultant mixture was continued to be cultured for 2 hours. Subsequently, the medium was replaced with a new medium, and the culture was performed in the presence or absence of COM-JP for 2 days more. Finally, the cells were collected, and the quantity of survival activity of the cells was determined by a MTT method. In each experiment, three cases of the group under the same conditions were measured, and the average value and the standard error, and the p-value of significance test were shown in the diagram.

[7] = system: Panc-1 cell derived from human pancreatic cancer; assay: MTT, single agents and combination with COM-JP, Panc-1 cells; type: cell-based
Procedure: as §2

## O=c1[nH]cc(F)c(=O)[nH]1 [5-FU, 5-fluorouracil]
[1]; COM-JP and 5-FU in combination
  combined effect with COM-JP on tumor growth: additive
[1]; compared with untreated control group
  increase of the tumor, single administration: more significant decrease

## NC1(C(=O)O)CC2CCC1C2 (centres unmarked) [BCH, 2-Aminobicyclo-(2,2,1)-heptane-2-carboxylic acid, reference compound]
[2]; 10.0 mM
  viability at 10000 µM: 30%

## [NH2][Pt]([NH2])([Cl])[Cl] [CDDP, cisplatin, reference compound]
[3]; COM-JP i.p. 3.1, 12.5, 50 mg/kg/day 4 weeks, CDDP i.p. 2.5 mg/kg/day day 0, 6, 13
  efficacy on tumor growth, single administration: not recognized
[3]; Group 8: COM-JP 50 mg/kg/day i.p. plus CDDP 2.5 mg/kg/day
  efficacy of combination with COM-JP on tumor growth: synergistic effect

## CC(C)C[C@@H](N)C(=O)O [D-Leucine, D-leucine, reference compound]
[2]; 30.0 mM
  viability at 30000 µM: 60%

## COc1ccc(-c2ccc3c(N4CCOCC4)nc(N4C[C@@H](C)O[C@@H](C)C4)nc3n2)cc1CO [KU0063794, rel-5-[2-[(2R,6S)-2,6-dimethyl-4-morpholinyl]-4-(4-morpholinyl)pyrido[2,3-d]pyrimidin-7-yl]-2-methoxybenzenemethanol, reference compound]
KO99L cells [4]
  combination effect with COMPOUND-JP on metabolic activity/cell survival (Combination Index): less efficient
CHOP
  CHOP induction: did not result in CHOP induction
c-myc
  c-myc protein level: slightly influenced the two lower bands
mTORC1 / Akt activation
  4EBP1 phosphorylation: completely block
  Akt phosphorylation (serine 473) / activation: completely block
  S6RP phosphorylation (mTORC1 activation): completely block

## NC1(c2ccc(-c3nc4ccn5c(=O)[nH]nc5c4cc3-c3ccccc3)cc2)CCC1 [MK-2206, reference compound]
CHOP
  CHOP induction: did not result in CHOP induction
c-myc
  c-myc protein level: dramatic disappearance of all three c-myc isoforms
mTORC1 / Akt activation
  4EBP1 phosphorylation: completely block
  Akt phosphorylation (serine 473) / activation: completely block
  S6RP phosphorylation (mTORC1 activation): completely block

## CC(C)[C@H](NC(=O)c1ccc2ccccc2n1)C(=O)N[C@@H](CC(=O)O)C(=O)COc1c(F)cccc1F [QvD-OPH, reference compound]
KO99L cells [5]
  quantity of apoptotic cells when co-administered with COMPOUND-JP: markedly decreased the quantity of apoptotic cells

## COc1cccc2c1C(=O)c1c(O)c3c(c(O)c1C2=O)C[C@@](O)(C(=O)CO)C[C@@H]3O[C@H]1C[C@H](N)[C@H](O)[C@H](C)O1 [doxorubicin, doxorubicin hydrochloride]
KO99L cells [4]
  combination effect with COMPOUND-JP on metabolic activity/cell survival (Combination Index): synergy

## Nc1ccn([C@@H]2O[C@H](CO)[C@@H](O)C2(F)F)c(=O)n1 [gemstabine, gemcitabine]
[6]
  inhibitory effect of combination with COM-JP (15 μM): additive effect
  proliferation activity, agent used alone for 2 hours: decreased in a dose-dependent manner
[7]
  inhibitory effect of combination with COM-JP (15 μM): additive effect
  proliferation activity, agent used alone for 2 hours: decreased in a dose-dependent manner
  relative inhibitory effect of single agents: extremely small

## CC(=O)O[C@H]1C(=O)[C@@]2(C)[C@H]([C@H](OC(=O)c3ccccc3)[C@]3(O)C[C@H](OC(=O)[C@H](O)[C@@H](NC(=O)c4ccccc4)c4ccccc4)C(C)=C1C3(C)C)[C@]1(OC(C)=O)CO[C@@H]1C[C@@H]2O [paclitaxel]
[6]
  inhibitory effect of combination with COM-JP (15 μM): additive effect
  proliferation activity, agent used alone for 2 hours: decreased in a dose-dependent manner
  relative inhibitory effect of single agents: stronger than that of gemstabine
[7]
  inhibitory effect of combination with COM-JP (15 μM): additive effect
  proliferation activity, agent used alone for 2 hours: decreased in a dose-dependent manner
  relative inhibitory effect of single agents: stronger than that of gemstabine

## CC(C)C[C@H](NC(=O)[C@H](Cc1ccccc1)NC(=O)c1cnccn1)B(O)O [velcade, bortezomib, reference compound]
CHOP
  CHOP induction: strongly induced
c-myc
  c-myc protein level: Analogous observations
mTORC1 / Akt activation
  4EBP1 phosphorylation: completely abolished
  Akt phosphorylation (serine 473) / activation: completely abolished
  S6RP phosphorylation (mTORC1 activation): completely abolished

B1: Erw: enzyme that can degrade extracellular asparagine, with higher glutaminase activity (protein, UniProt P06608 22-348, looked up)
L-asparaginase: ADKLPNIVILATGGTIAGSAATGTQTTGYKAGALGVDTLINAVPEVKKLANVKGEQFSNMASENMTGDVVLKLSQRVNELLARDDVDGVVITHGTDTVEESAYFLHLTVKSDKPVVFVAAMRPATAISADGPMNLLEAVRVAGDKQSRGRGVMVVLNDRIGSARYITKTNASTLDTFKANEEGYLGVIIGNRIYYQNRIDKLHTTRSVFDVRGLTSLPKVDILYGYQDDPEYLYDAAIQHGVKGIVYAGMGAGSVSVRGIAGMRKAMEKGVVVIRSTRTGNGIVPPDEELPGLVSDSLNPAHARILLMLALTRTSDPKVIQEYFHTY
CHOP
  CHOP expression, time course: induced a transient response
mTORC1 / Akt activation
  4EBP1 phosphorylation: altered 4EBP1 phosphorylation
  Akt phosphorylation (serine 473) / activation: did not significantly influence Akt phosphorylation
  S6RP phosphorylation (mTORC1 activation): altered S6RP phosphorylation

B2: L-Asp: enzyme that can degrade extracellular asparagine and also possesses glutaminase activity (protein, UniProt P00805 23-348, looked up)
L-asparaginase 2: LPNITILATGGTIAGGGDSATKSNYTVGKVGVENLVNAVPQLKDIANVKGEQVVNIGSQDMNDNVWLTLAKKINTDCDKTDGFVITHGTDTMEETAYFLDLTVKCDKPVVMVGAMRPSTSMSADGPFNLYNAVVTAADKASANRGVLVVMNDTVLDGRDVTKTNTTDVATFKSVNYGPLGYIHNGKIDYQRTPARKHTSDTPFDVSKLNELPKVGIVYNYANASDLPAKALVDAGYDGIVSAGVGNGNLYKSVFDTLATAAKTGTAVVRSSRVPTGATTQDAEVDDAKYGFVASGTLNPQKARVLLQLALTQTKDPQQIQQIFNQY
KO99L cells [4]
  combination effect with COMPOUND-JP on metabolic activity/cell survival (Combination Index): potentiate
CHOP
  CHOP expression, time course: lower magnitude compared to COMPOUND-JP
mTORC1 / Akt activation
  4EBP1 phosphorylation: altered 4EBP1 phosphorylation
  Akt phosphorylation (serine 473) / activation: did not significantly influence Akt phosphorylation
  S6RP phosphorylation (mTORC1 activation): altered S6RP phosphorylation
